Test results reported in ChEMBL document CHEMBL3044818, “Fungicide resistance status in French populations of the wheat eyespot fungi Oculimacula acuformis and Oculimacula yallundae” (Pest Manag Sci, 2013).
Values after ≈ are worked out from the molar mass of the structure shown.

What was measured:
Oculimacula yallundae [1] = assay: Resistance index, ratio of EC50 for prochloraz-resistant Oculimacula yallundae isolate ProR1 to EC50 for prochloraz-susceptible Oculimacula yallundae isolate ProS by germ tube elongation inhibition assay; assay type: functional
Oculimacula yallundae [2] = assay: Resistance index, ratio of EC50 for prochloraz-resistant Oculimacula yallundae isolate ProR2 to EC50 for prochloraz-susceptible Oculimacula yallundae isolate ProS by mycelial growth inhibition assay; assay type: functional
Oculimacula acuformis [3] = assay: Fungicidal activity against Oculimacula acuformis assessed as inhibition of mycelial growth in presence of 10 g glucose incubated at 19 degC in dark for 4 weeks; assay type: functional, organism-based; conditions: 672 h
Oculimacula yallundae [4] = assay: Fungicidal activity against Oculimacula yallundae assessed as inhibition of germ tube elongation incubated at 19 degC in dark for 48 hr; assay type: functional, organism-based
Oculimacula yallundae [5] = assay: Resistance index, ratio of EC50 for prochloraz-resistant Oculimacula yallundae isolate ProR2 to EC50 for prochloraz-susceptible Oculimacula yallundae isolate ProS by germ tube elongation inhibition assay; assay type: functional
Oculimacula yallundae [6] = assay: Resistance index, ratio of EC50 for prochloraz-resistant Oculimacula yallundae isolate ProR1 to EC50 for prochloraz-susceptible Oculimacula yallundae isolate ProS by mycelial growth inhibition assay; assay type: functional
Oculimacula yallundae [7] = assay: Fungicidal activity against prochloraz-susceptible Oculimacula yallundae isolate ProS assessed as inhibition of mycelial growth in presence of 10 g glucose incubated at 19 degC in dark for 4 weeks; assay type: functional, organism-based; conditions: 672 h
Oculimacula yallundae [8] = assay: Fungicidal activity against prochloraz-susceptible Oculimacula yallundae isolate ProS assessed as inhibition of germ tube elongation incubated at 19 degC in dark for 48 hr; assay type: functional, organism-based
Oculimacula acuformis [9] = assay: Fungicidal activity against Oculimacula acuformis assessed as inhibition of germ tube elongation incubated at 19 degC in dark for 48 hr; assay type: functional, organism-based
[10] = Selectivity index, ratio of EC50 for Oculimacula acuformis to EC50 for Oculimacula yallundae by germ tube elongation inhibition assay; assay type: functional
Oculimacula yallundae [11] = assay: Fungicidal activity against Oculimacula yallundae assessed as inhibition of mycelial growth in presence of 10 g glucose incubated at 19 degC in dark for 4 weeks; assay type: functional, organism-based; conditions: 672 h
[12] = Selectivity index, ratio of EC50 for Oculimacula acuformis to EC50 for Oculimacula yallundae in presence of 10 g glucose by mycelial growth inhibition assay; assay type: functional
Oculimacula yallundae [13] = assay: Resistance index, ratio of EC50 for sterol 14alpha-demethylation inhibitor-resistant Oculimacula yallundae MDR to EC50 for sterol 14alpha-demethylation inhibitor-resistant Oculimacula yallundae TriR1 by germ tube elongation assay; assay type: functional
Oculimacula yallundae [14] = assay: Resistance index, ratio of EC50 for sterol 14alpha-demethylation inhibitor-resistant Oculimacula yallundae MDR to EC50 for wild type Oculimacula yallundae TriS by germ tube elongation assay; assay type: functional
Oculimacula yallundae [15] = assay: Resistance index, ratio of EC50 for sterol 14alpha-demethylation inhibitor-resistant Oculimacula yallundae MDR to EC50 for sterol 14alpha-demethylation inhibitor-resistant Oculimacula yallundae TriR1 by mycelial growth inhibition assay; assay type: functional
Oculimacula yallundae [16] = assay: Resistance index, ratio of EC50 for sterol 14alpha-demethylation inhibitor-resistant Oculimacula yallundae TriR2 to EC50 for sterol 14alpha-demethylation inhibitor-resistant Oculimacula yallundae TriR1 by mycelial growth inhibition assay; assay type: functional
Oculimacula yallundae [17] = assay: Resistance index, ratio of EC50 for sterol 14alpha-demethylation inhibitor-resistant Oculimacula yallundae TriR1 to EC50 for wild type Oculimacula yallundae TriS by germ tube elongation assay; assay type: functional
Oculimacula acuformis [18] = assay: Fungicidal activity against Oculimacula acuformis assessed as inhibition of mycelial growth in presence of 5 g sodium succinate incubated at 19 degC in dark for 4 weeks; assay type: functional, organism-based; conditions: 672 h
Oculimacula yallundae [19] = assay: Fungicidal activity against Oculimacula yallundae assessed as inhibition of mycelial growth in presence of 5 g sodium succinate incubated at 19 degC in dark for 4 weeks; assay type: functional, organism-based; conditions: 672 h
Oculimacula yallundae [20] = assay: Resistance index, ratio of EC50 for sterol 14alpha-demethylation inhibitor-resistant Oculimacula yallundae TriR2 to EC50 for wild type Oculimacula yallundae TriS by germ tube elongation assay; assay type: functional
Oculimacula yallundae [21] = assay: Resistance index, ratio of EC50 for sterol 14alpha-demethylation inhibitor-resistant Oculimacula yallundae MDR to EC50 for wild type Oculimacula yallundae TriS by mycelial growth inhibition assay; assay type: functional
Oculimacula yallundae [22] = assay: Resistance index, ratio of EC50 for sterol 14alpha-demethylation inhibitor-resistant Oculimacula yallundae TriR2 to EC50 for wild type Oculimacula yallundae TriS by mycelial growth inhibition assay; assay type: functional
Oculimacula yallundae [23] = assay: Resistance index, ratio of EC50 for sterol 14alpha-demethylation inhibitor-resistant Oculimacula yallundae TriR2 to EC50 for sterol 14alpha-demethylation inhibitor-resistant Oculimacula yallundae TriR1 by germ tube elongation assay; assay type: functional
Oculimacula yallundae [24] = assay: Resistance index, ratio of EC50 for sterol 14alpha-demethylation inhibitor-resistant Oculimacula yallundae TriR1 to EC50 for wild type Oculimacula yallundae TriS by mycelial growth inhibition assay; assay type: functional
[25] = Selectivity index, ratio of EC50 for Oculimacula acuformis to EC50 for Oculimacula yallundae in presence of 5 g sodium succinate by mycelial growth inhibition assay; assay type: functional

Row | Compound | Ratio EC50 (Oculimacula yallundae [1]) | Ratio EC50 (Oculimacula yallundae [2]) | EC50 (Oculimacula acuformis [3]) | EC50 (Oculimacula yallundae [4]) | Ratio EC50 (Oculimacula yallundae [5]) | EC50 (Oculimacula yallundae [8]) | EC50 (Oculimacula acuformis [9]) | Ratio EC50 [10] | EC50 (Oculimacula yallundae [11]) | Ratio EC50 [12] | Ratio EC50 (Oculimacula yallundae [13]) | Ratio EC50 (Oculimacula yallundae [14]) | Ratio EC50 (Oculimacula yallundae [15]) | Ratio EC50 (Oculimacula yallundae [16]) | Ratio EC50 (Oculimacula yallundae [17]) | Ratio EC50 (Oculimacula yallundae [20]) | Ratio EC50 (Oculimacula yallundae [21]) | Ratio EC50 (Oculimacula yallundae [22]) | Ratio EC50 (Oculimacula yallundae [23]) | Ratio EC50 (Oculimacula yallundae [24]) | other results
1 | C[Si](Cn1cncn1)(c1ccc(F)cc1)c1ccc(F)cc1 [FLUSILAZOLE] | 2.5 | 6.2 | 0.4 µg/mL | 0.008 µg/mL (≈ 0.0254 µM) | 5 | 0.2 µg/mL (≈ 0.634 µM) | 0.2 µg/mL (≈ 0.634 µM) | 25 | 0.06 µg/mL | 6.7 | – | – | – | – | – | – | – | – | – | – | Ratio EC50 (Oculimacula yallundae [6]): 5; EC50 (Oculimacula yallundae [7]): 0.4 µg/mL
2 | O=C(Nc1ccccc1-c1ccc(Cl)cc1)c1cccnc1Cl [BOSCALID] | – | – | 0.3 µg/mL | 0.03 µg/mL (≈ 0.0874 µM) | – | – | 0.025 µg/mL (≈ 0.0728 µM) | 0.8 | 0.4 µg/mL | 0.08 | 4.5 | 5 | 10 | 1.3 | 1.1 | 1.3 | 7.5 | 1 | 1.2 | 0.8 | EC50 (Oculimacula acuformis [18]): 0.3 µg/mL; EC50 (Oculimacula yallundae [19]): 5 µg/mL; Ratio EC50 [25]: 0.06
3 | Clc1ccc(C2(Cn3cncn3)CC(Br)CO2)c(Cl)c1 (stereo not drawn) [BROMUCONAZOLE] | 0.6 | 0.5 | 1.5 µg/mL | 0.03 µg/mL (≈ 0.0796 µM) | 1 | 0.8 µg/mL (≈ 2.12 µM) | 0.8 µg/mL (≈ 2.12 µM) | 27 | 0.2 µg/mL | 8.5 | 2.5 | 83 | 2 | 2 | 33 | 40 | 10 | 10 | 1.2 | 5 | Ratio EC50 (Oculimacula yallundae [6]): 0.3; EC50 (Oculimacula yallundae [7]): 1.5 µg/mL
4 | CC(C1CC1)C(O)(Cn1cncn1)c1ccc(Cl)cc1 (stereo not drawn) [CYPROCONAZOLE] | 0.5 | – | 12 µg/mL | 0.05 µg/mL (≈ 0.171 µM) | 0.8 | 3 µg/mL (≈ 10.3 µM) | 3 µg/mL (≈ 10.3 µM) | 60 | 0.3 µg/mL | 40 | 1 | 160 | 0.9 | 0.7 | 160 | 100 | 20 | 17 | 0.6 | 23 | –
5 | CCCN(CCOc1c(Cl)cc(Cl)cc1Cl)C(=O)n1ccnc1 [PROCHLORAZ] | 63 | 25 | 0.04 µg/mL | 0.005 µg/mL (≈ 0.0133 µM) | 75 | 0.004 µg/mL (≈ 0.0106 µM) | 0.004 µg/mL (≈ 0.0106 µM) | 0.8 | 0.05 µg/mL | 0.8 | 71 | 100 | 2 | 20 | 1.4 | 240 | 3 | 30 | 171 | 1.5 | Ratio EC50 (Oculimacula yallundae [6]): 25; EC50 (Oculimacula yallundae [7]): 0.04 µg/mL
6 | OC(Cc1ccccc1Cl)(Cn1nc[nH]c1=S)C1(Cl)CC1 (stereo not drawn) [PROTHIOCONAZOLE] | 1.2 | 2.4 | 0.5 µg/mL | 0.08 µg/mL (≈ 0.232 µM) | 1.5 | 0.06 µg/mL (≈ 0.174 µM) | 0.06 µg/mL (≈ 0.174 µM) | 0.8 | 0.4 µg/mL | 1.3 | 30 | 38 | 1.8 | 0.8 | 1.3 | 1.3 | 4.5 | 2 | 1 | 2.5 | Ratio EC50 (Oculimacula yallundae [6]): 1.6; EC50 (Oculimacula yallundae [7]): 0.5 µg/mL
7 | Fc1ccc([C@]2(Cn3cncn3)O[C@H]2c2ccccc2Cl)cc1 (relative stereo) [EPOXICONAZOLE] | 2 | 5 | 0.3 µg/mL | 0.02 µg/mL (≈ 0.0606 µM) | 3 | 0.3 µg/mL (≈ 0.91 µM) | 0.3 µg/mL (≈ 0.91 µM) | 15 | 0.15 µg/mL | 2 | 5 | 150 | 2 | 1 | 30 | 60 | 6.7 | 3.3 | 2 | 3.3 | Ratio EC50 (Oculimacula yallundae [6]): 3.3; EC50 (Oculimacula yallundae [7]): 0.3 µg/mL
